# Measured values: patent US20050049282A1, “Process” (priority 2001, published 2005)
# How the values were obtained:
# [1] = room temperature and daylight; cited from earlier work
# [2] = Stability of omeprazole in alcoholic solution under chromatographic conditions; format: physicochemical; details: methanol with addition of 0.1% diethylamine
# Excerpt: It has previously been reported that alcoholic solution of omeprazole is not stable in room temperature and in daylight. There is thus a risk that one or several decomposition products might co-elute with one of the enantiomers.
smiles,measurement,setting,value
"COc1ccc2[nH]c([S+]([O-])Cc3ncc(C)c(OC)c3C)nc2c1 (racemic) [omeprazole, 5-methoxy-2-[[(4-methoxy-3,5-dimethyl-2-pyridinyl)methyl]sulfinyl]-1H-benzimidazole]",stability of alcoholic solution,[1],not stable
same,stability of solution in methanol,[2],stabilizes a solution of omeprazole in methanol to a sufficient degree
